Assay results from patent US5792635A, “Method of inhibiting the sodium/proton exchanger NHE3 and method of inhibiting growth by administering squalamine” (priority 1995, dated 1998).
Converted amounts (≈) assume the structure as drawn.

Columns and labels:
S. aureus = test: Antibiotic activity, MIC; format: cell-based; conditions: Staphylococcus aureus
C. albicans = test: Antibiotic activity, MIC; format: cell-based; conditions: Candida albicans
E. Coli = test: Antibiotic activity, MIC; format: cell-based; conditions: Escherichia coli
chick embryo = test: Chick embryo diss. assay (Table II); format: in vivo
Experimental: Using the chick embryo vitelline capillaries assay, compounds were tested for their ability to induce capillary regression. Each compound was applied in 0.1 ml of 15% Ficol 400 and PBS onto the embryo, and vascular regression was assessed after 60 minutes.

Xenopus tadpoles = test: Tadpole assay; conditions: Xenopus tadpole assay

Compound `CC(C)CCCC(C)[C@H]1CCC2C3C(CC[C@@]21C)[C@@]1(C)CC[C@@H](NCCCNCCCCN)C[C@@H]1C[C@H]3O` (some centres unmarked) [drawing 56] has an MIC (S. aureus) of 4 µg/mL (≈ 7.52 µM), an MIC (C. albicans) of 2 µg/mL (≈ 3.76 µM) and an MIC (E. Coli) of 32 µg/mL (≈ 60.2 µM).

In the case of `CC(C)CCCC(C)[C@H]1CCC2C3CC[C@H]4C[C@H](NCCCN5CCCCN=C5N)CC[C@]4(C)C3CC[C@@]21C` (some centres unmarked), the “Minimum Effective Concentration, chick embryo diss. assay” value (from here on “Minimum Effective Concentration”) (chick embryo) is reported as greater than 10 µg.

`CC(C)CCC[C@@H](C)[C@H]1CC[C@H]2[C@@H]3[C@H](O)C[C@H]4C[C@@H](NCCCNCCCCN)CC[C@]4(C)[C@H]3CC[C@]12C` [Compound 371] was tested, and the “functional similarity in tadpole assay” value (Xenopus tadpoles) was “effects like those produced by compound 1436”.

Work on `CC(C)CCCC(C)[C@H]1CCC2C3C(CC[C@@]21C)[C@@]1(C)CC[C@H](NCCCNCCCCN)C[C@@H]1C[C@H]3O` (some centres unmarked) [drawing 57] yielded an MIC (S. aureus) of 4 µg/mL (≈ 7.52 µM), an MIC (C. albicans) of 2 µg/mL (≈ 3.76 µM) and an MIC (E. Coli) of 64 µg/mL (≈ 120 µM).

For `COC(=O)CCC(C)[C@H]1CCC2C3CC[C@@H]4C[C@H](NCCCNCCCCNCCCN)CC[C@]4(C)C3C[C@H](O)[C@@]21C` (some centres unmarked) [drawing 72], the MIC (S. aureus) was 2 µg/mL (≈ 3.38 µM), the MIC (C. albicans) was 8 µg/mL (≈ 13.5 µM) and the MIC (E. Coli) was 16 µg/mL (≈ 27.1 µM).

In the case of `COC(=O)CC[C@@H](C)[C@H]1CC[C@H]2[C@@H]3C[C@@H](O)[C@H]4C[C@@H](NCCN)CC[C@]4(C)[C@H]3CC[C@]12C` [Compound 432], the “functional similarity in tadpole assay” value (Xenopus tadpoles) is reported as “functionally similar to compound 1437”.

In the case of `COC(=O)CC[C@@H](C)[C@H]1CC[C@H]2[C@@H]3CC[C@@H]4C[C@H](NCCN)CC[C@]4(C)[C@H]3C[C@H](O)[C@]12C` [Compound 416], the “functional similarity in tadpole assay” value (Xenopus tadpoles) is reported as “functionally similar to compound 1437”.

Work on `CC(CCC(=O)O)[C@H]1CCC2C3CC[C@@H]4C[C@H](NCCCNCCCCNCCCN)CC[C@]4(C)C3C[C@H](O)[C@@]21C` (some centres unmarked) [drawing 73] yielded an MIC (S. aureus) of 4 µg/mL (≈ 6.93 µM), an MIC (C. albicans) of 4 µg/mL (≈ 6.93 µM) and an MIC (E. Coli) of 8 to 16 µg/mL (≈ 13.9 to 27.7 µM).

With `COC(=O)CC[C@@H](C)[C@H]1CC[C@H]2[C@@H]3C[C@@H](O)[C@H]4C[C@H](NCCCNCCCCNCCCN)CC[C@]4(C)[C@H]3CC[C@]12C` [Compound 465] the “functional similarity in tadpole assay” value (Xenopus tadpoles) was “pharmacologic activity similar to that seen for FX 3”.

Compound `CC(CCC(=O)O)[C@H]1CCC2C3C(CC[C@@]21C)[C@@]1(C)CC[C@@H](NCCCNCCCCNCCCN)C[C@H]1C[C@H]3O` (some centres unmarked) [drawing 61] has an MIC (S. aureus) of 8 µg/mL (≈ 13.9 µM), an MIC (C. albicans) of 8 µg/mL (≈ 13.9 µM) and an MIC (E. Coli) of 64 µg/mL (≈ 111 µM).

For `COC(=O)CCC(C)[C@H]1CCC2C3C(CC[C@@]21C)[C@@]1(C)CC[C@H](NCCN)C[C@H]1C[C@H]3O` (some centres unmarked) [drawing 58], the MIC (S. aureus) was 32 µg/mL (≈ 71.3 µM), the MIC (C. albicans) was 16 µg/mL (≈ 35.7 µM) and the MIC (E. Coli) was 64 µg/mL (≈ 143 µM).

Compound `CC(CCC(=O)O)[C@H]1CCC2C3C(CC[C@@]21C)[C@@]1(C)CC[C@H](NCCN)C[C@H]1C[C@H]3O` (some centres unmarked) [drawing 64] has an MIC (S. aureus) of 128 µg/mL (≈ 294 µM), an MIC (C. albicans) of 256 µg/mL (≈ 589 µM) and an MIC (E. Coli) of 128 µg/mL (≈ 294 µM).

In the case of `COC(=O)CCC(C)[C@H]1CCC2C3CC[C@@H]4C[C@H](NCCCNCCCCNCCCN)CC[C@]4(C)C3C[C@H](O)[C@@]21C` (some centres unmarked) [drawing 106], the “Minimum Effective Concentration” value (chick embryo) is reported as 1 µg.

Compound `COC(=O)CCC(C)[C@H]1CCC2C3CC[C@@H]4C[C@H](NCCN)CC[C@]4(C)C3C[C@H](O)[C@@]21C` (some centres unmarked) [drawing 65] has an MIC (S. aureus) of 8 µg/mL (≈ 17.8 µM), an MIC (C. albicans) of 32 µg/mL (≈ 71.3 µM) and an MIC (E. Coli) of 8 µg/mL (≈ 17.8 µM).

`CC(C)CCCC(C)[C@H]1CCC2C3C(CC[C@@]21C)[C@@]1(C)CC[C@H](N)C[C@@H]1C[C@H]3O` (some centres unmarked) [drawing 88] was tested, and the “Minimum Effective Concentration” value (chick embryo) was 1 µg.

With `CC(CCC(=O)O)[C@H]1CCC2C3C[C@@H](O)[C@H]4C[C@@H](NCCN)CC[C@]4(C)C3CC[C@@]21C` (some centres unmarked) [drawing 105] the “Minimum Effective Concentration” value (chick embryo) was 1 µg.

In the case of `COC(=O)CCC(C)[C@H]1CCC2C3C(CC[C@@]21C)[C@@]1(C)CC[C@@H](NCCN)C[C@H]1C[C@H]3O` (some centres unmarked) [drawing 59], the MIC (S. aureus) is reported as 16 µg/mL (≈ 35.7 µM), the MIC (C. albicans) is reported as 16 µg/mL (≈ 35.7 µM) and the MIC (E. Coli) is reported as 16 µg/mL (≈ 35.7 µM).

`CC(CCC(CO)(OS(=O)(=O)O)C(C)C)[C@H]1CCC2C3C(CC[C@@]21C)[C@@]1(C)CC[C@H](NCCCNCCCCN)C[C@@H]1C[C@H]3O` (some centres unmarked) was tested, and the “Minimum Effective Concentration” value (chick embryo) was greater than 1 µg.

`C[C@H](CCC(=O)O)[C@H]1CC[C@H]2[C@@H]3C[C@@H](O)[C@H]4C[C@@H](NCCN)CC[C@]4(C)[C@H]3CC[C@]12C` [Compound 433] was tested, and the “functional similarity in tadpole assay” value (Xenopus tadpoles) was “functionally similar to compound 1437”.

Compound `COC(=O)CCC(C)[C@H]1CCC2C3C(CC[C@@]21C)[C@@]1(C)CC[C@H](NCCCNCCCCNCCCN)C[C@H]1C[C@H]3O` (some centres unmarked) [drawing 60] has an MIC (S. aureus) of 8 µg/mL (≈ 13.5 µM), an MIC (C. albicans) of 2 µg/mL (≈ 3.38 µM) and an MIC (E. Coli) of 64 µg/mL (≈ 108 µM).

Work on `COC(=O)CCC(C)[C@H]1CCC2C3C[C@@H](O)[C@H]4C[C@@H](NCCCNCCCCNCCCN)CC[C@]4(C)C3CC[C@@]21C` (some centres unmarked) [drawing 77] yielded an MIC (S. aureus) of 2 µg/mL (≈ 3.38 µM), an MIC (C. albicans) of 2 µg/mL (≈ 3.38 µM) and an MIC (E. Coli) of 32 µg/mL (≈ 54.2 µM).

For `COC(=O)CCC(C)[C@H]1CCC2C3C[C@@H](O)[C@H]4C[C@@H](NCCCNCCCCNCCCN)CC[C@]4(C)C3CC[C@@]21C` (some centres unmarked) [drawing 101], the “Minimum Effective Concentration” value (chick embryo) was 1 µg.

In the case of `CC(CCC(=O)O)[C@H]1CCC2C3C[C@@H](O)[C@H]4C[C@@H](NCCCNCCCCNCCCN)CC[C@]4(C)C3CC[C@@]21C` (some centres unmarked), the MIC (S. aureus) is reported as 16 µg/mL (≈ 27.7 µM), the MIC (C. albicans) is reported as 4 µg/mL (≈ 6.93 µM) and the MIC (E. Coli) is reported as 16 µg/mL (≈ 27.7 µM).
